Measurements reported in publication PMC4137987 (Chemical Research in Toxicology, 2014).

Columns and labels:
[1] = Serum concentration and clearance of PCB3 metabolites after inhalation; assay type: in vivo, female Sprague–Dawley (SD) rats; conditions: 0 h postexposure; PCB3 26 μg/rat; mean ± SD, n = 3
[2] = Excretion in urine and feces over 24 h after inhalation of PCB3; assay type: in vivo, female Sprague–Dawley (SD) rats; conditions: 0–24 h; PCB3 35 μg/rat; n = 3
[3] = system: granulosa and theca cells derived from porcine ovary; conditions: cited from earlier work
[4] = Serum chemistry and serum free thyroxine; assay type: in vivo, female Sprague–Dawley (SD) rats; conditions: rats exposed to PCB3 for 2 h
urinary 8-oxo-dG = assay: Urinary 8-oxo-dG analysis; assay type: in vivo, female Sprague–Dawley (SD) rats; conditions: exposed rats; composite 24 h urine; not significant vs control (p = 0.23)

| Structure (SMILES) | Serum concentration [1] [ng/mL] | Metabolite excreted in urine, percentage of dose [2] [%] | Estradiol level in the medium [3] | Serum chemistry parameters (renal function, serum protein, T4, electrolyte balance, pancreas function, liver function, lipid metabolism) [4] | 8-oxo-dG level in 24 h urine (urinary 8-oxo-dG) [pg/mg creatinine] | Unchanged PCB3 in feces, percentage of dose [2] [%] | Unchanged PCB3 in urine, percentage of dose [2] [%] |
| --- | --- | --- | --- | --- | --- | --- | --- |
| Oc1ccc(-c2ccc(Cl)cc2)cc1 [4′OH-PCB3] | 7 ± 1 | 1.0 ± 0.5 |  |  |  |  |  |
| Clc1ccc(-c2ccccc2)cc1 [PCB3, 4-chlorobiphenyl] |  |  | significant increase | within normal ranges | 160 ± 35 | 4 ± 2 | 2 ± 1 |
